Experimental data published in US6525059B1, “Substituted pyrazoles as p38 kinase inhibitors” (G. D. Searle & Company, priority 1998, dated 2003).
Structures can show the parent of a compound that is named as a salt.

First: CSC(SC)=C(C(=O)c1ccc(F)cc1)c1ccncc1 [Example A-432]
Second: OCCn1nc(-c2ccc(F)cc2)c(-c2ccncc2)c1C1CC1 [Example A-192, 5-cyclopropyl-3-(4-fluorophenyl)-4-(4-pyridinyl)-1H-pyrazole-1-ethanol]
The melting point of the first is lower: 80.2 to 82.1 °C for the first, 155 to 157 °C for the second.

First: Fc1cccc(-c2[nH]ncc2-c2ccncn2)c1 [Example A-311, 4-[3-(3-fluorophenyl)-1H-pyrazol-4-yl]pyrimidine]
Second: CN(C)c1nccc(-c2cn[nH]c2-c2ccc(F)cc2)n1 [Example A-301, 4-[3-(4-fluorophenyl)-1H-pyrazol-4-yl]-N,N-dimethyl-2-pyrimidinamine]
The melting point of the first is higher: 168.58 °C for the first, 155 to 156 °C for the second.

First: CCc1cccc(-c2[nH]nc(CC)c2-c2ccncc2)c1 [Example A-187, 4-[3-ethyl-5-(3-ethylphenyl)-1H-pyrazol-4-yl]pyridine]
Second: CCc1cccc(-c2[nH]nc(C)c2-c2ccncc2)c1 [Example A-185, 4-[3-(3-ethylphenyl)-5-methyl-1H-pyrazol-4-yl]pyridine]
The melting point of the first is higher: 192.66 °C for the first, 189.25 °C for the second.

First: CCN(CC)c1n[nH]c(-c2ccc(Cl)cc2)c1-c1ccncc1 [Example A-163, 5-(4-chlorophenyl)-N,N-diethyl-4-(4-pyridinyl)-1H-pyrazol-3-amine]
Second: Cc1c(-c2ccncc2)c(-c2ccc(Cl)cc2)nn1C [Example A-204, 4-[3-(4-chlorophenyl)-1,5-dimethyl-1H-pyrazol-4-yl]pyridine]
The melting point of the first is higher: 260 to 261 °C for the first, 82 to 88 °C for the second.

First: COc1ccc(CNc2nccc(-c3cn[nH]c3-c3ccc(F)cc3)n2)cc1 [Example A-305, 4-[3-(4-fluorophenyl)-1H-pyrazol-4-yl]-N-[(4-methoxyphenyl)methyl)-2-pyrimidinamine]
Second: Fc1ccc(-c2n[nH]cc2-c2ccnc(NCc3ccccc3)n2)cc1 [Example A-303, 4-[3-(4-fluorophenyl)-1H-pyrazol-4-yl]-N-(phenylmethyl)-2-pyrimidinamine]
The melting point of the first is lower: 183 to 185 °C for the first, 216 to 217 °C for the second.

First: Fc1ccc(-c2n[nH]cc2-c2ccnc(Cl)n2)cc1 [Example A-299, 2-Chloro-4-[3-(4-fluorophenyl)-1H-pyrazol-4-yl]pyrimidine]
Second: Clc1cccc(-c2n[nH]cc2-c2ccnc(NCc3ccccc3)c2)c1 [Example A-220, 4-[3-(3-chlorophenyl)-1H-pyrazol-4-yl]-N-(phenylmethyl)-2-pyridinamine]
The melting point of the first is higher: 204 to 205 °C for the first, 179 to 180 °C for the second.

Compared with `CN1CCN(c2n[nH]c(-c3cccc(C(F)(F)F)c3)c2-c2ccncc2)CC1` [Example A-424], `CN1CCN(c2n[nH]c(-c3cccc(C#N)c3)c2-c2ccncc2)CC1` [Example A-422, 1-[5-(3-cyanophenyl)-4-(4-pyrdinyl)-1H-pyrazol-3-yl]4-methylpiperazine] is higher in melting point: 212.6 to 213.7 °C for the first, 223.4 to 224.3 °C for the second.

Work on `COC(=O)N1CCN(c2[nH]nc(-c3ccc(Cl)cc3)c2-c2ccncc2)CC1` (hydrate or solvate) [Example A-319, methyl 4-[5-(4-chlorophenyl)-4-(4-pyridinyl)-1H-pyrazol-3-yl]-1-piperazinecarboxylate, monohydrate] yielded a melting point of 264 to 265 °C.

For `O.O.O=C(O)CCC(=O)N1CCN(c2n[nH]c(-c3ccc(Cl)cc3)c2-c2ccncc2)CC1` (hydrate or solvate) [A-321 (dihydrate), 4-[5-(4-chlorophenyl)-4-(4-pyridinyl)-1H-pyrazol-3-yl]-γ-oxo-1-piperazinebutanoic acid, dihydrate], the melting point was 281 to 283 °C (dec.).
With `CN1CCN(c2n[nH]c(-c3ccc(C(F)(F)F)cc3)c2-c2ccncc2)CC1` [Example A-425] the melting point was 240.5 °C (dec.).
With `C#CCn1nc(N2CCNCC2)c(-c2ccncc2)c1-c1ccc(Cl)cc1` (as salt: hydrochloride) (hydrate or solvate) [Example A-318, 1-[5-(4-chlorophenyl)-4-(4-pyridinyl)-1-(2-propynyl)-1H-pyrazol-3-yl]piperazine, trihydrochloride monohydrate] the melting point was 231 to 233 °C (dec.).
